One test concerns the target hMC1-R (Homo sapiens (Human), UniProt Q01726). The experiment in a line: Functional assay for agonist activity at hMC1-R. It is filed as cell-based. The following applies: intrinsic activity.
A further test deals with hMC4-R (Homo sapiens (Human), UniProt P32245). The test can be described thus: Assay for agonist activity (cAMP accumulation in HEK-293 cells). It is filed as cell-based. The following applies: for Emax: HEK293; for functional classification at MC4-R: agonist = intrinsic activity 70% or higher, partial agonist 10-70%.
Sequence of hMC4-R (P32245 whole entry): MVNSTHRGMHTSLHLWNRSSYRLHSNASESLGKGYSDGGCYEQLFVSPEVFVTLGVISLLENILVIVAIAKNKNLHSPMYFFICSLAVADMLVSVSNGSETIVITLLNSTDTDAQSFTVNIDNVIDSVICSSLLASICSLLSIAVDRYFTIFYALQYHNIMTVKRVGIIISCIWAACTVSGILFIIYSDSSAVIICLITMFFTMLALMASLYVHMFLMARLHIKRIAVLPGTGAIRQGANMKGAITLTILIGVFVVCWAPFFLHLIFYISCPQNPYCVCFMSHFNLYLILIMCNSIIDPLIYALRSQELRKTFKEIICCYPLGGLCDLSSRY
[1] abbreviates: intrinsic activity, read-out: hMC4-R Emax (%).
Setting [2] is: NDP-α-MSH is 100%, read-out: intrinsic activity at MC4-R.

Read-outs that look alike come from different tables or passages of the source. Peptide text beside a SMILES is read from it.

Sequence of hMC1-R (Q01726 whole entry): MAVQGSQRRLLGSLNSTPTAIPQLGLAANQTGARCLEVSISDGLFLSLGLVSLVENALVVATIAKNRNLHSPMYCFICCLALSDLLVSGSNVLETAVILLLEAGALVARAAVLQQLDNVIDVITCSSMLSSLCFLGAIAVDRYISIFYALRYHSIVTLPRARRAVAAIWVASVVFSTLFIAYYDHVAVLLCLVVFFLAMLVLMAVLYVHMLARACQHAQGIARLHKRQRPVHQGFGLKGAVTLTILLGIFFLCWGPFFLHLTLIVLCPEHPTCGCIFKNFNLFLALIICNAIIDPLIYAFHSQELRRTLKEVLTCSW
Method for hMC4-R: Accumulation of intracellular cAMP was examined as a measure of the ability of the peptides of the present invention to elicit a functional response in HEK-293 cells that express MC4-R. Confluent HEK-293 cells that express recombinant hMC4-R were detached from culture plates by incubation in enzyme-free cell dissociation buffer. Dispersed cells were suspended in Earle's Balanced Salt Solution containing 10 mM HEPES (pH 7.5), 1 mM MgCl2, 1 mM glutamine, 0.5% albumin and 0.3 mM 3-isobutyl-1-methyl-xanthine (IBMX), a phosphodiesterase inhibitor. […] Cells were exposed for 15 minutes at 37° C. to peptides of the present invention dissolved in DMSO (final DMSO concentration of 1%) at a concentration range of 0.05-5000 nM in a total assay volume of 200 μL. […] Data analysis was performed by nonlinear regression analysis with Graph-Pad Prism® software. The maximum efficacies of the test peptides of the present invention were compared to that achieved by the reference melanocortin agonist NDP-αMSH.

`CC(=O)N[C@@H](CCCNC(=N)N)C(=O)N[C@H]1CCNC(=O)CCC[C@@H](C(N)=O)NC(=O)[C@H](Cc2c[nH]c3ccccc23)NC(=O)[C@H](CCCNC(=N)N)NC(=O)[C@@H](Cc2ccccc2)NC(=O)[C@H](CCC(N)=O)NC1=O` [compound 159, Ac-Arg-cyclo(Dab-Gln- D-Phe-Arg-Trp-hGlu)- NH2]: the Emax at hMC1-R was 98%; at hMC4-R (setting [1]), 99%.

As for `CC(=O)N[C@@H](CCCNC(=N)N)C(=O)N[C@H]1CCCC(=O)NCC[C@@H](C(N)=O)NC(=O)[C@H](Cc2c[nH]c3ccccc23)NC(=O)[C@H](CCCNC(=N)N)NC(=O)[C@@H](Cc2ccccc2)NC(=O)[C@H](CC(N)=O)NC1=O` [compound 160, Ac-Arg-cyclo(hGlu-Asn- D-Phe-Arg-Trp-Dab)- NH2] (HELM PEPTIDE1{[ac].R.[O=C([C@H](CCCC(=O)[*:3])N[*:1])[*:2]].N.[dF].R.W.[Dab].[am]}$PEPTIDE1,PEPTIDE1,3:R3-8:R3$$$V2.0), the Emax on hMC1-R was determined as 95%; on hMC4-R (setting [1]), 98%.

As to `CC(=O)N[C@@H](CCCNC(=N)N)C(=O)N[C@H]1CCCC(=O)NCC[C@@H](C(N)=O)NC(=O)[C@H](Cc2c[nH]c3ccccc23)NC(=O)[C@H](CCCNC(=N)N)NC(=O)[C@@H](Cc2ccccc2)NC(=O)[C@H](CCN)NC1=O` [compound 127, Ac-Arg-cyclo(hGlu-Dab- D-Phe-Arg-Trp-Dab)- NH2], the Emax on hMC4-R (setting [2]) is 98%. For the same compound, the “functional classification at MC4-R” value on hMC4-R is recorded as “agonist”.

The compound `CC(=O)N[C@H](CCCNC(=N)N)C(=O)N[C@H]1CCCNC(=O)CC[C@@H](C(N)=O)NC(=O)[C@H](Cc2c[nH]c3ccccc23)NC(=O)[C@H](CCCNC(=N)N)NC(=O)[C@@H](Cc2ccccc2)NC(=O)[C@H](CC(N)=O)NC1=O` [compound 156, Ac-D-Arg-cyclo(Orn- Asn-D-Phe-Arg-Trp- Glu)-NH2] displayed an Emax at hMC1-R of 81%.

At hMC1-R, `CC(=O)N[C@@H](CCCNC(=N)N)C(=O)N[C@H]1CCCNC(=O)CC[C@@H](C(N)=O)NC(=O)[C@H](Cc2c[nH]c3ccccc23)NC(=O)[C@H](CCCNC(=N)N)NC(=O)[C@@H](Cc2ccccc2)NC(=O)[C@H](CCC(N)=O)NC1=O` [compound 150, Ac-Arg-cyclo(Orn-Gln- D-Phe-Arg-Trp-Glu)- NH2] registered an Emax of 89%.

Turning to `CC(=O)N[C@@H](CCCNC(=N)N)C(=O)N[C@H]1CCCC(=O)NCC[C@@H](C(N)=O)NC(=O)[C@H](Cc2c[nH]c3ccccc23)NC(=O)[C@H](CCCNC(=N)N)NC(=O)[C@@H](Cc2ccccc2)NC(=O)[C@H](Cc2c[nH]cn2)NC1=O` [compound 126, Ac-Arg-cyclo(hGlu-His- D-Phe-Arg-Trp-Dab)- NH2], at hMC4-R (setting [2]), the Emax was 101%. The “functional classification at MC4-R” value at hMC4-R is on record as “agonist”.

`CC(=O)N[C@@H](CCCNC(=N)N)C(=O)N[C@H]1CCNC(=O)CCC[C@@H](C(N)=O)NC(=O)[C@H](Cc2c[nH]c3ccccc23)NC(=O)[C@H](CCCNC(=N)N)NC(=O)[C@@H](Cc2ccccc2)NC(=O)[C@H](CCN)NC1=O` [compound 129, Ac-Arg-cyclo(Dab-Dab- D-Phe-Arg-Trp-hGlu)- NH2]: the Emax on hMC4-R (setting [2]) was found to be 96%. Also, the “functional classification at MC4-R” value on hMC4-R is “agonist”.

On hMC1-R, `CC(=O)N[C@@H](CCCNC(=N)N)C(=O)N[C@H]1CCCNC(=O)CC[C@@H](C(N)=O)NC(=O)[C@H](Cc2c[nH]c3ccccc23)NC(=O)[C@H](CCCNC(=N)N)NC(=O)[C@@H](Cc2ccccc2)NC(=O)[C@H](CC(N)=O)NC1=O` [compound 154, Ac-Arg-cyclo(Orn-Asn- D-Phe-Arg-Trp-Glu)- NH2] showed an Emax of 87%.

In the case of `CC(=O)N[C@@H](CCCNC(=N)N)C(=O)N[C@H]1CCNC(=O)CCC[C@@H](C(N)=O)NC(=O)[C@H](Cc2c[nH]c3ccccc23)NC(=O)[C@H](CCCNC(=N)N)NC(=O)[C@@H](Cc2ccccc2)NC(=O)[C@H](Cc2c[nH]cn2)NC1=O` [compound 128, Ac-Arg-cyclo(Dab-His- D-Phe-Arg-Trp-hGlu)- NH2], on hMC4-R (setting [2]), the Emax came to 95%. In addition, the “functional classification at MC4-R” value on hMC4-R is given as “agonist”.
